Test [1] concerns the target T1, Sirt3 (Homo sapiens, UniProt Q9NTG7).
T1 construct: the respective sirtuin (Sirt1_134–747, Sirt2_56–356, or Sirt3_118–395) was mixed with; made in house; host or cells: Escherichia coli BL21 Star (DE3)
T1 sequence (Q9NTG7 118-395): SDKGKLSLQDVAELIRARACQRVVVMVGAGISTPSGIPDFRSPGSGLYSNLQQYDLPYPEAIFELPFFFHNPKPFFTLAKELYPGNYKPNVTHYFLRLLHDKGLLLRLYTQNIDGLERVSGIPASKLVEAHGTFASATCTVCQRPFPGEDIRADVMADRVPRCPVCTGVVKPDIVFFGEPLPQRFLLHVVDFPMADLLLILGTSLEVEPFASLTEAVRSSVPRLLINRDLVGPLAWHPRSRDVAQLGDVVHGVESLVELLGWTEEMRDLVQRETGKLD
Nature of the test: Sirt3 in vitro deacetylation assay (ZMAL). Format: biochemical.

Test [2] concerns HGC27 gastric carcinoma cells. Nature of the test: Cell viability assay (MTS) HGC27. The class given is cell-based. As to conditions: 72 h; for HGC27 cellular effect: @ 50 μM. The method, then:
(§1) Cell viability assays of HGC27 and PC-3M-luc cells were performed by using the Celltiter 96 Aqueous Nonradioactive Proliferation Assay (Promega). Cells were seeded in sterile 96-well plates at a density of 2000 cells per well and incubated overnight at 37 °C and 5% CO2. Compound or vehicle were added to a final concentration of 0.5% DMSO. […] Cells were seeded at densities of 10^4 cells/well for W1 cells or 2 × 10^3 cells/well for MCF-7 cells. Tests were performed in 96-well plates (Sarstedt AG, Nümbrecht, Germany). After incubation overnight, cells were supplemented with half logarithmic dilution series of the indicated compounds and DPBS (PAN Biotech GmbH, Aidenbach, Germany) as control. Then 72 h after addition of cytostatic treatment, the MTT solution (20 μL, 5 mg/mL) was added into the wells for 1 h at 37 °C and 5% CO2 until formazan crystals were formed. The supernatant was removed, and the cells were dissolved in 200 μL of DMSO. Absorption was analyzed at 570 nm, with background subtraction at 690 nm, using a plate reader (Thermomultiscan EX, Thermo, Schwerte, Germany). Cell viability was then determined by nonlinear regression and a four-parameter logistic equation with variable hill slope. […] The significance of the difference of the effects of 33 and 4 + 57 was determined by using an unpaired, two-tailed t test with Welch’s correction, implemented in GraphPad Prism 8.4.0 (GraphPad, USA). Statistical significance was accepted if p < 0.05. Asterisks indicate *p < 0.05, **p < 0.01.

Test [3] addresses T2, HDAC6 (Homo sapiens, UniProt Q9UBN7).
T2 sequence (Q9UBN7 1-1215): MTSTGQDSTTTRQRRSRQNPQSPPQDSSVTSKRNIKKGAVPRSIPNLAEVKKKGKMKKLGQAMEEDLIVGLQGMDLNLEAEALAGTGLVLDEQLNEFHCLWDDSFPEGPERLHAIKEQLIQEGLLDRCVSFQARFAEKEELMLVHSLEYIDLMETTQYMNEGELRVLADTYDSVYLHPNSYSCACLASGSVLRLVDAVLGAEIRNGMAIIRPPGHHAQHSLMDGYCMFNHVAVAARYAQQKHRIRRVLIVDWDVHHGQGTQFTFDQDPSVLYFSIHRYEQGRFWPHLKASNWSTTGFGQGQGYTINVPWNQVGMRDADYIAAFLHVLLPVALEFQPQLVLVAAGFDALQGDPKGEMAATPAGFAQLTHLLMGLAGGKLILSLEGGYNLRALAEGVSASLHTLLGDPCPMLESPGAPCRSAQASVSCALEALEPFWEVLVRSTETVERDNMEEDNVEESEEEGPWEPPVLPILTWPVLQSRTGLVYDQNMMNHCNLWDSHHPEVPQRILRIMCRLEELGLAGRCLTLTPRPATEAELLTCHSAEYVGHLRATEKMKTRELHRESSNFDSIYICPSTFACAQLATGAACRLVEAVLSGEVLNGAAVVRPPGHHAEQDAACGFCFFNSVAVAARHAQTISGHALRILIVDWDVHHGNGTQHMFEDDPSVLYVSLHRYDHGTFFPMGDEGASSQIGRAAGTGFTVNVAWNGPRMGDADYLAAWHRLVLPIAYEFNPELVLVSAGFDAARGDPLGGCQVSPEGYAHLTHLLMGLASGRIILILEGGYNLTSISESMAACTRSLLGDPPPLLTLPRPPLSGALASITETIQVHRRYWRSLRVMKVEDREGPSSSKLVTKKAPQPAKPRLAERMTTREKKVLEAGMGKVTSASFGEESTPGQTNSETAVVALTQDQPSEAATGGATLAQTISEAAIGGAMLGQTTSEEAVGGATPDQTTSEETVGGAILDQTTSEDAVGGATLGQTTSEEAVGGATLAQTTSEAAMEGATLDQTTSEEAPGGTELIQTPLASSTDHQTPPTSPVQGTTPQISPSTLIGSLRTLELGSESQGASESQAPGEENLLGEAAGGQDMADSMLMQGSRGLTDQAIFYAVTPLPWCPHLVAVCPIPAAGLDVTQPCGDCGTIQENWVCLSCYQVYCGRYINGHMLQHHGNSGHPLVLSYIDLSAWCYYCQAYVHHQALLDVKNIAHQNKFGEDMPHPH
The test can be described thus: HDAC6 in vitro deacetylation assay (ZMAL). Format: biochemical. Set-up: purchased BPS Bioscience 50006. The following applies: deacetylation, mean ± SD.

For test [4], the target named is T3, Sirt1 (Homo sapiens, UniProt Q96EB6).
T3 construct: the respective sirtuin (Sirt1_134–747, Sirt2_56–356, or Sirt3_118–395) was mixed with; made in house; host or cells: Escherichia coli BL21 Star (DE3)
T3 sequence (Q96EB6 134-747): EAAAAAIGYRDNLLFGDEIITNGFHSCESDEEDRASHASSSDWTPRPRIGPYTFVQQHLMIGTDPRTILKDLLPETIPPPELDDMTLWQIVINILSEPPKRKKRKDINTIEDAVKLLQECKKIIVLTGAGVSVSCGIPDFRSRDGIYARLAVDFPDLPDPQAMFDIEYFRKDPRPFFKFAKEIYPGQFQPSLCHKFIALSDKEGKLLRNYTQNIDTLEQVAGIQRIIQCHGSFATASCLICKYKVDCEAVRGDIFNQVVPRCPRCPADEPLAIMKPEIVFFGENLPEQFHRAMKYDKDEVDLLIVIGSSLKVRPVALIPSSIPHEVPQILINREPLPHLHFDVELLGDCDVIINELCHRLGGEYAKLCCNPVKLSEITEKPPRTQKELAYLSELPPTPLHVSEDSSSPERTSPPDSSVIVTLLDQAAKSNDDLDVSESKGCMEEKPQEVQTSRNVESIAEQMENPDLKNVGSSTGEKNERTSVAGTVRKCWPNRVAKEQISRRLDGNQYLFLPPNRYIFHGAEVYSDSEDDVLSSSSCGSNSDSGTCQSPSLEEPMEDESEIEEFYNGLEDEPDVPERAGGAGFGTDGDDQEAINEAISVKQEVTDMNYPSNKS
Nature of the test: Sirt1 in vitro deacetylation assay (ZMAL). Format: biochemical.

The subject of test [5] is PC-3M-luc prostate cancer cells. The test can be described thus: Cell viability assay (MTS) PC-3M-luc. Format: cell-based. The following applies: 72 h; for PC-3M-luc cellular effect: @ 50 μM. The method, then: as §1
Test [6] concerns the target T4, Sirt2 (Homo sapiens, UniProt Q8IXJ6).
T4 construct: the respective sirtuin (Sirt1_134–747, Sirt2_56–356, or Sirt3_118–395) was mixed with; made in house; host or cells: Escherichia coli BL21 Star (DE3)
T4 sequence (Q8IXJ6 56-356): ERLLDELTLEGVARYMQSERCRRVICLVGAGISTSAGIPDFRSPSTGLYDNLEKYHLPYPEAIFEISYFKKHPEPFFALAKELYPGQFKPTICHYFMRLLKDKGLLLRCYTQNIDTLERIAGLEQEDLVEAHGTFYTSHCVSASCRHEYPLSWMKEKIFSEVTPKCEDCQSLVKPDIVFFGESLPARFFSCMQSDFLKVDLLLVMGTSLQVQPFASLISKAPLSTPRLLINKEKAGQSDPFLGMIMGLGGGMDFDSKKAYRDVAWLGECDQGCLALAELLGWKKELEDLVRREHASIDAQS
Nature of the test: Sirt2 in vitro deacetylation assay (ZMAL, trypsin-based fluorescence). The class given is biochemical. As to conditions: for IC50: deacetylation, mean ± SD.

Test [7] concerns the target T5, HDAC1 (Homo sapiens, UniProt Q13547).
T5 construct: purchased BPS Bioscience 50051
Nature of the test: HDAC1 in vitro deacetylation assay (ZMAL). As to conditions: deacetylation, mean ± SD. The class given is biochemical.

The subject of test [8] is W1 ovarian cancer cells. The test can be described thus: Cell viability assay (MTT) W1. The following applies: 72 h; for W1 cellular effect: @ 50 μM. The class given is cell-based. The method, then:
as §1

The test system of test [9] is MCF-7 breast cancer cells. The test can be described thus: Cell viability assay (MTT) MCF-7. Format: cell-based. The following applies: 72 h; for MCF-7 cellular effect: @ 50 μM. The method, then:
as §1

The target of test [10] is T6, Sirt2 (demyristoylation) (Homo sapiens, UniProt Q8IXJ6).
T6 construct: the respective sirtuin (Sirt1_134–747, Sirt2_56–356, or Sirt3_118–395) was mixed with; made in house; host or cells: Escherichia coli BL21 Star (DE3)
T6 sequence (Q8IXJ6 56-356): T4 sequence (Q8IXJ6 56-356)
The test can be described thus: Discontinuous Sirt2 demyristoylation assay (ZMML substrate). The class given is biochemical. The following applies: for IC50: mean ± SD.

Test [11] deals with T7, Sirt2 (Homo sapiens, UniProt Q8IXJ6).
T7 construct: expressed in transfected cells; host or cells: HEK293T
T7 sequence (Q8IXJ6 1-389): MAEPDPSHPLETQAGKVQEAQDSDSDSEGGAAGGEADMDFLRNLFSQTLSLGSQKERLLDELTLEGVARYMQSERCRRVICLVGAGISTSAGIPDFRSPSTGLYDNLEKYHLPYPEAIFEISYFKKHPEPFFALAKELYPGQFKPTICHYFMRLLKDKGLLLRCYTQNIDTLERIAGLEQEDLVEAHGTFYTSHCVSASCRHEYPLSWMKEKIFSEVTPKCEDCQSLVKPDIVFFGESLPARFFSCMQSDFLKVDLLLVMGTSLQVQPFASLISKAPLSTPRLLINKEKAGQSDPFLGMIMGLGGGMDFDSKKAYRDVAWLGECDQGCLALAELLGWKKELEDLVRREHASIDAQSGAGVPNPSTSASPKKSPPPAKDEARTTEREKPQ
Nature of the test: Cell-based NanoBRET assay for Sirt2 target engagement in HEK293T cells. As to conditions: tracer SirReal-TAMRA 2 μM. A general note: In BRET a luciferase serves as donor, and the signal depends on an acceptor being close.

Molecules are shown by their SMILES. Some results are limits rather than exact numbers.

T5 sequence (Q13547 whole entry): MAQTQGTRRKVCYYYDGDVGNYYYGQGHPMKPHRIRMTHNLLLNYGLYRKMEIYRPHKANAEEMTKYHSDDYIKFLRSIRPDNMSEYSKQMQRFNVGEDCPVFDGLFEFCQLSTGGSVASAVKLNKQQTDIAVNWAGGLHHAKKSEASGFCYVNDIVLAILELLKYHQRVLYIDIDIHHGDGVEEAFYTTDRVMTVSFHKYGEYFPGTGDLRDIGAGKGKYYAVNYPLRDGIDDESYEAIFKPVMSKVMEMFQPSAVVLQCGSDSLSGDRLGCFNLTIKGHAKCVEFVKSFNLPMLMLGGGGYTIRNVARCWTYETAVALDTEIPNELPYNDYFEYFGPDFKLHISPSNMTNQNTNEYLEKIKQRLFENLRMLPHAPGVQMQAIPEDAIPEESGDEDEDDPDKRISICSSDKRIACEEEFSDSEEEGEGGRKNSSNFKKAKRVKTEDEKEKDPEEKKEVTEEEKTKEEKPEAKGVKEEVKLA

As to `Cc1cc(C)nc(SCC(=O)Nc2ncc(Cc3cccc(OCc4cn(CCOCCOCCOCCOCCC(=O)Nc5ccc(C(=O)NCc6ccc(C(=O)NO)cc6)cc5)nn4)c3)s2)n1` [Compound 44, 4-((4-(1-(4-((3-((2-(2-((4,6-Dimethylpyrimidin-2-yl)thio)acetamido)thiazol-5-yl)methyl)phenoxy)methyl)-1H-1,2,3-triazol-1-yl)-3,6,9,12-tetraoxapentadecan-15-amido)benzamido)methyl)-N-hydroxybenzamide], the inhibition at 20 µM in test [1] and in test [4] was below 15% in each case. In test [2], the HGC27 cellular effect entry is given as “ni ^b (ni = no inhibition (cellular effect <20% @ 50 μM))”. In addition, the half-maximal inhibitory concentration (IC50) – broadly, the point on the concentration scale where inhibition reaches its midpoint – in test [3] came to 9.6 ± 0.3 nM; in test [6], 480 ± 40 nM; in test [7], 600 ± 30 nM; in test [10], 34000 ± 2000 nM. Moreover, the PC-3M-luc cellular effect result in [5] is listed as “ni ^b (ni = no inhibition (cellular effect <20% @ 50 μM))”. The W1 cellular effect result in test [8] is “ni ^b (ni = no inhibition (cellular effect <20% @ 50 μM))”. Moreover, the MCF-7 cellular effect result in [9] was “ni ^b (ni = no inhibition (cellular effect <20% @ 50 μM))”.

On to `Cc1cc(C)nc(SCC(=O)Nc2ncc(Cc3cccc(OCc4cn(CCOCCOCCOCCOCCOCCOCCOCCOCCOCCOCCC(=O)Nc5ccc(C(=O)NCc6ccc(C(=O)NO)cc6)cc5)nn4)c3)s2)n1` [Compound 45, 4-((4-(1-(4-((3-((2-(2-((4,6-Dimethylpyrimidin-2-yl)thio)acetamido)thiazol-5-yl)methyl)phenoxy)methyl)-1H-1,2,3-triazol-1-yl)-3,6,9,12,15,18,21,24,27,30-decaoxatritriacontan-33-amido)benzamido)methyl)-N-hydroxybenzamide], for which the inhibition at 20 µM in [1] and in test [4] was below 15% in each case. Besides, the HGC27 cellular effect entry in test [2] was “ni ^b (ni = no inhibition (cellular effect <20% @ 50 μM))”. The IC50 in [3] was determined as 17 ± 1 nM; in test [6] it was 540 ± 10 nM; in [7] it was 460 ± 50 nM; in test [10], 2800 ± 600 nM. The PC-3M-luc cellular effect result in test [5] is on record as “ni ^b (ni = no inhibition (cellular effect <20% @ 50 μM))”. Besides, in test [8], the W1 cellular effect result is given as “ni ^b (ni = no inhibition (cellular effect <20% @ 50 μM))”. Moreover, the MCF-7 cellular effect entry in test [9] is given as “ni ^b (ni = no inhibition (cellular effect <20% @ 50 μM))”.

For `CCCCC(=O)N(CCCC)Cc1ccc(C(=O)NO)cc1` [Compound 57, 4-((N-Butylpentanamido)methyl)-N-hydroxybenzamide], in [11], the “Cellular Sirt2 binding (NanoBRET)” value is given as “no Sirt2 binding”. The concentration giving a half-maximal response (EC50) – broadly, the concentration that produces a half-maximal response – in [2] (Homo sapiens, HGC-27, MTS, mean ± SD) turned out to be 21100 ± 1600 nM; in [5] (PC-3M-luc, read-out: PC-3M-luc cell viability EC50, MTS, mean ± SD) it was 30100 ± 2300 nM; in [8] (MTT, mean ± SD), 33600 ± 4100 nM; in test [9] (Homo sapiens, MCF7, MTT, mean ± SD) it was 16300 ± 5900 nM. In addition, the inhibition (in general, the change of the read-out against control, counted positive when it falls) at 20 µM in test [6] (@ 20 μM) was below 15%. Further, in test [6] (supplementary CSV, column IC50 Sirt2 [µM]), the “Sirt2 inhibition” value is listed as “n.i”. The inhibition at 5 µM in test [10] (@ 5 μM, read-out: Sirt2 (demyristoylation) percentual inhibition) is below 15%.
